Values quoted from earlier work, collected in patent US20070292407A1, “Methods of treatment for meconium aspiration syndrome” (The Board of Trustees Operating Michigan State University, priority 2005, published 2007).

Conditions: in vitro; Burke et al., J Pediatr Surg 2002

CC(=O)N[C@@H](CS)C(=O)O [N-Acetylcysteine, N-acetyl-L-cysteine]
reduction of meconium viscosity: significant reduction of meconium viscosity
